Measured values published in US10245264B2, “Substituted imidazo[1,2-a]pyrazines as soluble guanylate cyclase activators” (Merck Sharp & Dohme Corp., priority 2015, dated 2019).

Key:
[1] = molecular target: T1, sGC α1/β1 heterodimer stably expressed in CHO-K1 cells (CHO-K1/sGC) (Homo sapiens, UniProt Q02108+Q02153); experiment: Cell-based sGC functional assay (CASA assay), cGMP generation by HTRF; conditions: for Emax: CHO-K1, maximum cGMP production of Compound A set to 100% activation, read-out: % Act. (percent activation relative to Compound A); for EC50: CHO-K1/sGC cells, 1 hr at 37° C., 4P fit, presence or absence of DETA-NO not given, read-out: IP (nM) (inflection point)
T1 construct: expressed in transfected cells
T1 sequence (Q02108 1-690): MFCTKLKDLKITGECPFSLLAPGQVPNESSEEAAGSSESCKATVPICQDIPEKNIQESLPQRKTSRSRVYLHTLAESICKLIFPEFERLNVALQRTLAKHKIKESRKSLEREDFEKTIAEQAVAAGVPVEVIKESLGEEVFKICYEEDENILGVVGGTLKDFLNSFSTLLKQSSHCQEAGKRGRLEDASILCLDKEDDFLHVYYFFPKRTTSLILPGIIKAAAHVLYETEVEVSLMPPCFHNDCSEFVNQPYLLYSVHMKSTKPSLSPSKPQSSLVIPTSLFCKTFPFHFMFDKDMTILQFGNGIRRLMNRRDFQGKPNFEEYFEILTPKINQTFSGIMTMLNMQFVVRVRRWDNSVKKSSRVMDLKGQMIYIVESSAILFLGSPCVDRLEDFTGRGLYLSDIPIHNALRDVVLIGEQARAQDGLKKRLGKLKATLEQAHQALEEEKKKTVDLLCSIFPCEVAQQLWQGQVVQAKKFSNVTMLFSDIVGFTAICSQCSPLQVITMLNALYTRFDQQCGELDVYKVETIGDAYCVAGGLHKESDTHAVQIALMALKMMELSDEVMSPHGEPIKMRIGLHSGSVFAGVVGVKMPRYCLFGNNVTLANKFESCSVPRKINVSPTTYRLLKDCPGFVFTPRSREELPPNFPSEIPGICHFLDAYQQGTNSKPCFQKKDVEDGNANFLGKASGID
T1 sequence (Q02153 1-619): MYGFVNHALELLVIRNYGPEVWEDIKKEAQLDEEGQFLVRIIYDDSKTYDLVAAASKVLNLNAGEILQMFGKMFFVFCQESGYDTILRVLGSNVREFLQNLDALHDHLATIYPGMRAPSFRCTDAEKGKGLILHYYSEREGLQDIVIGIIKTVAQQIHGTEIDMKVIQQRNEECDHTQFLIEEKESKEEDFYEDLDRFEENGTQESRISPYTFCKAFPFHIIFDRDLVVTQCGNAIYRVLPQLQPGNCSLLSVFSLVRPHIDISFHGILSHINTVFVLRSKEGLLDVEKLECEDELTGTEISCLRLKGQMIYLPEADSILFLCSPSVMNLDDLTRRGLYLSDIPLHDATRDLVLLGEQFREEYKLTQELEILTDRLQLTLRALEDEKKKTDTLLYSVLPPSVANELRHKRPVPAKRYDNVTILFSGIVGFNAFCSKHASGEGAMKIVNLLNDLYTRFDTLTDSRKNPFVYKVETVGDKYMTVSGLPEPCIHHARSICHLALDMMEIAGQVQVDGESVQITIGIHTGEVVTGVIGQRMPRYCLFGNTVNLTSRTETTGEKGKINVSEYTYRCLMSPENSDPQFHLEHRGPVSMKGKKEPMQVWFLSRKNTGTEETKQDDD
Outline: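 CHO-K1/sGC cells (4×10^5/mL) in EBSS with 5 mM MgCl2, 10 mM HEPES, 0.05% BSA and 0.5 mM IBMX, treated 1 hr at 37° C with compounds (2.5% DMSO) with or without 1 μM DETA-NO. cGMP measured by HTRF, expressed as % of a reference heme-dependent activator's maximum; inflection point and fold induction from 4P fit.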

[2] = test system: systolic blood pressure in spontaneously hypertensive rats; experiment: Acute efficacy in spontaneously hypertensive rats (SHR), telemetry blood pressure; format: in vivo, rat
Source text: Acute Efficacy in Spontaneously Hypertensive Rats (SHR)
Spontaneously hypertensive rats (SHR, male, Charles River) were implanted with DSI TA11 PA-C40 telemetry device (Data Sciences, Inc., St. Paul, Minn.) under isoflurane or ketamine/metomidine anesthesia. The telemetry unit catheter was inserted into the descending aorta via the femoral artery and the telemetry device was implanted subcutaneously in the left flank area. Animals were allowed to recover from surgery for 14 days before the start of any studies. Blood pressure, heart rate, and activity signals from conscious, freely moving rats were recorded continuously for 30 seconds every 10 minutes. On the day prior to administration of compound, a single oral dose of vehicle (10% transcutol/20% Cremophor/70% water) was administered to all animals to establish baseline control data. The blood pressure lowering efficacy of compound (PO) or vehicle was evaluated following a single oral gavage. Data were collected as hourly averages, and changes in blood pressure were calculated by subtracting control baseline data on an hourly basis. Animals were maintained on normal diet with a 12 hour light-dark cycle.
Maximum peak decreases of systolic blood pressure (SBP) in SHR at a particular P.O. dose (mpk milligrams per kilogram) for the following representative compounds are provided below in Table 6.
Category A=SBP in SHRs <20 mmHg; Category B=SBP in SHRs 20-40 mmHg;
Category C=SBP in SHRs >40 mmHg

| Emax [1] [%] | EC50 [1] [nM] | Compound | Maximum peak decrease of systolic blood pressure (SBP), Category ([2]; single oral dose 0.3 mpk P.O.) | Maximum peak decrease of systolic blood pressure (SBP), Category ([2]; single oral dose 1.0 mpk P.O.) | Maximum peak decrease of systolic blood pressure (SBP), Category ([2]; single oral dose 3.0 mpk P.O.) |
| --- | --- | --- | --- | --- | --- |
| 106 | 12 | CC1(c2ccc(Cl)cc2)C(=O)Nc2nc(-c3cn4ccnc4c(OCCC4CC4)n3)nc(N)c21 (stereo not drawn) [Example 50A, 4-amino-5-(4-chlorophenyl)-2-[8-(2-cyclo-propylethoxy)imidazo[1,2-a]pyrazin-6-yl]-5-methyl-5,7-dihydro-6H-pyrrolo[2,3-d] pyrimidin-6-one] | B (Category B=SBP in SHRs 20-40 mmHg) |  |  |
| 129 | 157 | CC1(c2ccc(Cl)cc2)C(=O)Nc2nc(-c3cn4ccnc4c(OCC4CC(F)(F)C4)n3)nc(N)c21 (stereo not drawn) [Example 32A, 4-amino-5-(4-chlorophenyl)-2-{8-[(3,3-difluoro-cyclobutyl)methoxy]imidazo [1,2-a]pyrazin-6-yl}-5-methyl-5,7-dihydro-6H-pyrrolo[2,3-d] pyrimidin-6-one] |  | B (Category B=SBP in SHRs 20-40 mmHg) |  |
| 127 | 45 | CC1(c2ccccc2)C(=O)Nc2nc(-c3cn4ccnc4c(Oc4ccccc4)n3)nc(N)c21 (stereo not drawn) [Example 10B, 4-amino-5-methyl-2-(8-phenoxy-imidazo[1,2-a]pyrazin-6-yl)-5-phenyl-5,7-dihydro-6H-pyrrolo[2,3-d] pyrimidin-6-one] | B (Category B=SBP in SHRs 20-40 mmHg) |  |  |
| 109 | 148 | CCCOc1nc(-c2nc(N)c3c(n2)NC(=O)C3(C)c2ccc(F)cc2)cn2ccnc12 (stereo not drawn) [Example 39A, 4-Amino-5-(4-fluorophenyl)-5-methyl-2-(8-propoxyimidazo[1,2-a]pyrazin-6-yl)-5,7-dihydro-6H-pyrrolo[2,3-d]pyrimidin-6-one] |  | C (Category C=SBP in SHRs >40 mmHg) |  |
| 91 | 157 | CC1(c2ccc(Cl)cc2)C(=O)Nc2nc(-c3cn4ccnc4c(OCC(F)(F)C(F)(F)F)n3)nc(N)c21 (stereo not drawn) [Example 47A, 4-amino-5-(4-chlorophenyl)-5-methyl-2-[8-(2,2,3,3,3-pentafluoro-propoxy)imidazo [1,2-a]pyrazin-6-yl]-5,7-dihydro-6H-pyrrolo[2,3-d] pyrimidin-6-one] |  | B (Category B=SBP in SHRs 20-40 mmHg) |  |
| 116 | 165 | CC1(c2ccc(Cl)cc2)C(=O)Nc2nc(-c3cn4ccnc4c(NCC(F)(F)C(F)(F)F)n3)nc(N)c21 (stereo not drawn) [Example 61A, 4-amino-5-(4-chlorophenyl)-5-methyl-2-{8-[(2,2,3,3,3-pentafluoro-propyl)amino]imidazo[1,2-a]pyrazin-6-yl}-5,7-dihydro-6H-pyrrolo [2,3-d]pyrimidin-6-one] |  |  | B (Category B=SBP in SHRs 20-40 mmHg) |
| 117 | 164 | CC1(c2ccc(F)cc2)C(=O)Nc2nc(-c3cn4ccnc4c(NCC(F)(F)C(F)(F)F)n3)nc(N)c21 (stereo not drawn) [Example 34A, 4-amino-5-(4-fluorophenyl)-5-methyl-2-{8-[(2,2,3,3,3-pentafluoropropyl)amino]imidazo [1,2-a]pyrazin-6-yl}-5,7-dihydro-6H-pyrrolo[2,3-d] pyrimidin-6-one] |  |  | A (Category A=SBP in SHRs <20 mmHg) |
| 99 | 142 | CCCSc1nc(-c2nc(N)c3c(n2)NC(=O)C3(C)c2ccc(F)cc2)cn2ccnc12 (stereo not drawn) [Example 62A, 4-amino-5-(4-fluorophenyl)-5-methyl-2-[8-(propylsulfanyl)imidazo[1,2-a]pyrazin-6-yl]-5,7-dihydro-6H-pyrrolo [2,3-d]pyrimidin-6-one] |  | B (Category B=SBP in SHRs 20-40 mmHg) |  |
| 110 | 17 | CC1(c2ccc(F)cc2)C(=O)Nc2nc(-c3cn4ccnc4c(Oc4cccc(F)c4)n3)nc(N)c21 (stereo not drawn) [Example 1A, 4-Amino-2-[8-(3-fluorophenoxy)imidazo[1,2-a]pyrazin-6-yl]-5-(4-fluorophenyl)-5-methyl-5,7-dihydro-6H-pyrrolo[2,3-d]pyrimidin-6-one] | B (Category B=SBP in SHRs 20-40 mmHg) |  |  |
| 117 | 85 | COCCNc1nc(-c2nc(N)c3c(n2)NC(=O)C3(C)c2ccc(Cl)cc2)cn2ccnc12 (stereo not drawn) [Example 40A, 4-Amino-5-(4-chlorophenyl)-2-{8-[(2-methoxyethyl)amino]imidazo[1,2-a]pyrazin-6-yl}-5-methyl-5,7-dihydro-6H-pyrrolo[2,3-d]pyrimidin-6-one] |  | B (Category B=SBP in SHRs 20-40 mmHg) |  |
| 127 | 27 | CC(C)COc1nc(-c2nc(N)c3c(n2)NC(=O)C3(C)c2ccc(F)cc2)cn2ccnc12 (stereo not drawn) [Example 51A, 4-amino-5-(4-fluorophenyl)-5-methyl-2-[8-(2-methyl-propoxy)imidazo [1,2-a]pyrazin-6-yl]-5,7-dihydro-6H-pyrrolo[2,3-d] pyrimidin-6-one] | B (Category B=SBP in SHRs 20-40 mmHg) |  |  |
| 127 | 317 | CC1(c2ccc(F)cc2)C(=O)Nc2nc(-c3cn4ccnc4c(OCC(F)(F)C(F)(F)F)n3)nc(N)c21 (stereo not drawn) [Example 2A, 4-amino-5-(4-fluorophenyl)-5-methyl-2-[8-(2,2,3,3,3-pentafluoropropoxy)imidazo[1,2-a]pyrazin-6-yl]-5,7-dihydro-6H-pyrrolo[2,3-d]pyrimidin-6-one] |  |  | B (Category B=SBP in SHRs 20-40 mmHg) |
| 100 | 62 | CC1(c2ccc(F)cc2)C(=O)Nc2nc(-c3cn4ccnc4c(Oc4ccccc4F)n3)nc(N)c21 (stereo not drawn) [Example 4A, 4-amino-2-[8-(2-fluorophenoxy)imidazo[1,2-a]pyrazin-6-yl]-5-(4-fluorophenyl)-5-methyl-5,7-dihydro-6H-pyrrolo[2,3-d] pyrimidin-6-one] |  | C (Category C=SBP in SHRs >40 mmHg) |  |
| 168 | 171 | CC1(c2ccc(Cl)cc2)C(=O)Nc2nc(-c3cn4ccnc4c(Oc4cccnc4)n3)nc(N)c21 (stereo not drawn) [Example 30A, 4-amino-5-(4-chlorophenyl)-5-methyl-2-[8-(pyridin-3-yloxy)imidazo[1,2-a]pyrazin-6-yl]-5,7-dihydro-6H-pyrrolo[2,3-d] pyrimidin-6-one] |  | B (Category B=SBP in SHRs 20-40 mmHg) |  |
| 117 | 30 | CCCOc1nc(-c2nc(N)c3c(n2)NC(=O)C3(C)c2ccc(Cl)cc2)cn2ccnc12 (stereo not drawn) [Example 49A, 4-amino-5-(4-chlorophenyl)-5-methyl-2-(8-propoxyimidazo [1,2-a]pyrazin-6-yl)-5,7-dihydro-6H-pyrrolo[2,3-d] pyrimidin-6-one] | B (Category B=SBP in SHRs 20-40 mmHg) |  |  |
